Experiments:
[1] = test system: Liposome; assay: (§1) Binding to POPC (palmitoyl-oleolyl-phosphatidyl-choline) liposomes using biosensor system; format: functional
[2] = test system: Liposome; assay: (§2) Binding to POPC/GMI liposomes using biosensor system; format: functional
[3] = Estimation of fraction absorbed (Fa) in the human intestine using biosensor technology.; format: ADME, organism-based; conditions: in vivo
[4] = test system: Liposome; assay: as §2
[5] = test system: Liposome; assay: as §1

Row | Structure (SMILES) | Other [1] | Other [2] | Fa [3] [%] | Other [4] | Other [5]
1 | CC(C)NCC(O)COc1ccc(CC(N)=O)cc1 (stereo unspecified) | 24 | 38 | – | – | –
2 | CC1(C)S[C@@H]2[C@H](NC(=O)[C@H](N)c3ccc(O)cc3)C(=O)N2[C@H]1C(=O)O [AMOXICILLIN] | 17 | 9 | 90 | – | –
3 | CNCCCN1c2ccccc2CCc2ccccc21 [DESIPRAMINE] | 1010 | 1200 | 100 | – | –
4 | COCCc1ccc(OCC(O)CNC(C)C)cc1 (stereo unspecified) | – | – | – | 179 | 82
5 | NC[C@H]1CC[C@H](C(=O)O)CC1 | 20 | 14 | – | – | –
6 | COc1ccc(CCN(C)CCCC(C#N)(c2ccc(OC)c(OC)c2)C(C)C)cc1OC (stereo unspecified) | – | – | 100 | – | –
7 | CC(C(=O)O)c1cccc(C(=O)c2ccccc2)c1 (stereo unspecified) [KETOPROFEN] | 62 | 101 | 100 | – | –
8 | CN1CC(=O)NC1=N [CREATININE] | – | – | 100 | 13 | 22
9 | NC(N)=O [UREA] | – | – | 100 | 26 | 23
10 | OC[C@H]1O[C@H](OC[C@H]2O[C@H](O[C@]3(CO)O[C@H](CO)[C@@H](O)[C@@H]3O)[C@H](O)[C@@H](O)[C@@H]2O)[C@H](O)[C@@H](O)[C@H]1O | 24 | 34 | – | – | –
11 | CC(C)NCC(O)COc1cccc2ccccc12 (stereo unspecified) [PROPRANOLOL] | 683 | 839 | 100 | – | –
12 | NC(=O)N1c2ccccc2C=Cc2ccccc21 [CARBAMAZEPINE] | 70 | 144 | 100 | – | –
13 | Cc1cc(=O)n(-c2ccccc2)n1C [ANTIPYRINE] | 19 | 12 | 100 | – | –
14 | CC(C)(C)NCC(O)c1cc(O)cc(O)c1 (stereo unspecified) | – | – | – | 117 | 47
15 | CCN1CCCC1CNC(=O)c1cc(S(N)(=O)=O)ccc1OC (stereo unspecified) | 47 | 78 | – | – | –
16 | C=CCOc1ccccc1OCC(O)CNC(C)C (stereo unspecified) | 120 | 277 | – | – | –
17 | NS(=O)(=O)c1cc(C(=O)O)c(NCc2ccco2)cc1Cl [FUROSEMIDE] | 56 | 92 | 50 | – | –
18 | OC[C@H]1O[C@@H](O[C@@H]2[C@@H](CO)O[C@](O)(CO)[C@H]2O)[C@H](O)[C@@H](O)[C@H]1O | 22 | 29 | – | – | –
19 | O=C(O)P(=O)(O)O | – | – | – | 62 | 32
20 | CC(C)C[C@H](N)C(=O)O [LEUCINE] | – | – | 100 | 11 | 18
21 | COc1ccc2cc([C@H](C)C(=O)O)ccc2c1 [NAPROXEN] | – | – | 100 | 183 | 109
22 | C=CCc1ccccc1OCC(O)CNC(C)C (stereo unspecified) | 297 | 480 | – | – | –
23 | NS(=O)(=O)c1cc2c(cc1Cl)NCNS2(=O)=O [HYDROCHLOROTHIAZIDE] | 60 | 95 | 55 | – | –
24 | CC(C)NCC(O)COc1cccc2[nH]ccc12 (stereo unspecified) | 142 | 314 | – | – | –
25 | O=C(O)c1cc(/N=N/c2ccc(S(=O)(=O)Nc3ccccn3)cc2)ccc1O | – | – | – | 348 | 241
26 | OC[C@H]1OC(O)[C@H](O)[C@@H](O)[C@@H]1O (stereo partly specified) [DEXTROSE] | 18 | 10 | 100 | – | –
27 | OC[C@@H](O)[C@@H](O)[C@H](O)[C@H](O)CO | 22 | 29 | – | – | –

From ChEMBL document CHEMBL1133190, “SPR biosensor studies of the direct interaction between 27 drugs and a liposome surface: correlation with fraction absorbed in humans” (J Med Chem, 2000)
